Laboratory results as given in ChEMBL document CHEMBL1135948, “A solid-phase approach towards the synthesis of PDE5 inhibitors” (Bioorg Med Chem Lett, 2002).

target: cGMP-specific 3',5'-cyclic phosphodiesterase (Homo sapiens) (UniProt O76074); assay: Percentage inhibition against phosphodiesterase 5 (PDE5) was determined using [3H]cGMP scintillation proximity assay at concentration of 1 uM

SMILES	inhibition [%]
CC(C)Cn1c(=O)n(-c2ccncc2)c(=O)c2[nH]c(Cc3ccc(Br)cc3)nc21	22
CCOc1ccccc1-n1c(=O)c2[nH]c(Cc3ccc(Br)cc3)nc2n(CC(C)C)c1=O	38
CC(C)Cn1c(=O)n(CSc2ccccc2)c(=O)c2[nH]c(Cc3ccc(Br)cc3)nc21	15
CC(C)Cn1c(=O)n(CN)c(=O)c2[nH]c(Cc3ccc(Br)cc3)nc21	38
CC(C)Cn1c(=O)n(COc2ccccc2)c(=O)c2[nH]c(Cc3ccc(Br)cc3)nc21	33
CC(C)Cn1c(=O)n(C2CCC2)c(=O)c2[nH]c(Cc3ccc(Br)cc3)nc21	4
CC(C)Cn1c(=O)n(C)c(=O)c2[nH]c(Cc3ccc(Br)cc3)nc21	93
CC(C)Cn1c(=O)[nH]c(=O)c2[nH]c(Cc3ccc(Br)cc3)nc21	42
C#Cn1c(=O)c2[nH]c(Cc3ccc(Br)cc3)nc2n(CC(C)C)c1=O	68
CC(C)Cn1c(=O)n(-c2ccccn2)c(=O)c2[nH]c(Cc3ccc(Br)cc3)nc21	20
CC(C)Cn1c(=O)n(CN(C(C)C)C(C)C)c(=O)c2[nH]c(Cc3ccc(Br)cc3)nc21	41
CC(C)Cn1c(=O)n(CO)c(=O)c2[nH]c(Cc3ccc(Br)cc3)nc21	88
CC(C)Cn1c(=O)n(CC(C)(C)C)c(=O)c2[nH]c(Cc3ccc(Br)cc3)nc21	35
CC(C)Cn1c(=O)n(Cc2cccc3c2OCO3)c(=O)c2[nH]c(Cc3ccc(Br)cc3)nc21	13
CC(C)Cn1c(=O)n(-c2cncn2C)c(=O)c2[nH]c(Cc3ccc(Br)cc3)nc21	59
CCn1c(=O)c2[nH]c(Cc3ccc(Br)cc3)nc2n(CC(C)C)c1=O	93
CC(C)Cn1c(=O)n(CCC2CCCCC2)c(=O)c2[nH]c(Cc3ccc(Br)cc3)nc21	42
CCCn1c(=O)c2[nH]c(Cc3ccc(Br)cc3)nc2n(CC(C)C)c1=O	57
